Source: patent US20250262190A1, “USE OF LAT1 INHIBITORS TO TREAT OBESITY” (Georgetown University, priority 2022, published 2025)

Experiments:
HFD-fed mice [1] = assay: Body weight, fat mass and food intake in HFD-fed mice injected with JPH203; assay type: in vivo; conditions: 25 mg/kg intraperitoneally
Procedure: (§1) A study was conducted to determine if inhibiting Slc7a5 prevents the metabolic response of adipocyte to excess […] intake and obesity. Mice fed with HFD for 3 months were then injected intraperitoneally with either (a) JPH203, a potent Slc7a5 inhibitor, at a dose of 25 mg/kg, or (b) PBS (vehicle) as control, for 15 consecutive days while on HFD (Days 1-15). Mice fed with a normal diet and receiving no injection were included as a comparator.

HFD-fed mice [2] = assay: Toxicity of JPH203 treatment in HFD-fed mice (liver and kidney function, activity, organ mass, whole blood counts); assay type: in vivo; conditions: 25 mg/kg intraperitoneally
Procedure: as §1
In addition, liver function (AST, ALT), kidney function (creatinine), and effect on bone marrow and immune response (whole blood counts) were tested to examine the toxicity of the pharmacological JPH203 treatment. […] Also, there was no effect of JPH203 treatment on liver, heart, or kidney weight (see FIG. 3, Panel E).

[3] = tested on: adipose tissues of HFD-fed mice; assay: Nile red and Mitotracker staining of adipose tissues of HFD-fed mice; assay type: in vivo
Procedure: [“Epi fat”=epididymal white adipose tissue; “SubQ”=inguinal white adipose tissue; “iBAT”=interscapular brown adipose tissue; data shown as mean±standard error (SE) and significance was determined by one-way ANOVA or unpaired two-tailed t-test; *P<0.05, **P<0.01.]
as §1

HFD-fed mice [4] = assay: Serum levels of adipokine and cytokines by ELISA in HFD-fed mice; assay type: in vivo; conditions: 25 mg/kg intraperitoneally, 15 days, vs control HFD-fed mice
Procedure: Panels A-G show serum levels of leptin, insulin like growth factor 1 (IGF1), monocyte chemoattractant protein-1 (MCP1), vascular endothelial growth factor (VEGF), interleukin 1 alpha (ILla), interleukin 1 beta (IL1β), interleukin 6, and tumor necrosis factor alpha (TNFa), respectively, in normal diet-fed mice, HFD-fed mice injected with JPH203, and control HFD-fed mice. [“AU”=arbitrary unit; data shown as mean±SEM and significance was determined by one-way analysis of variance (ANOVA) or unpaired two-tailed t-test; *P<0.05, **P<0.01; ***P<0.001, ****P<0.0001.]
as §1
Obesity is correlated with chronically high levels of several cytokines which produced primarily by adipose tissues, which play a role in chronic inflammatory states.

[5] = tested on: epididymal white adipose tissue of HFD-fed mice; assay: Gene expression (mRNA) in epididymal white adipose tissue of HFD-fed mice; assay type: in vivo
Procedure: as §1
To determine if JPH203 affected adipose tissue function, the epididymal and inguinal white adipose tissues were dissected and analyzed 15 days after treatment.

HFD-fed mice [6] = assay: Glucose homeostasis and intraperitoneal glucose tolerance testing in HFD-fed mice; assay type: in vivo
Procedure: [data shown as mean±SEM and significance was determined by one-way ANOVA (for analysis shown in Panels A, B, C, D, and G) or multiple unpaired t-test (for analysis shown in Panel F); *P<0.05, **P<0.01, ***P<0.001.]
as §1
Mice that were obese due to HFD were hyperglycemic and hyperinsulinemia regardless of fed or fasting status (see FIG. 9, Panels A-D).

[7] = tested on: differentiated adipocytes 3T3L1 co-cultured with macrophage (RAW 264.7 cells); assay: Adipogenesis in co-culture of adipocyte 3T3L1 and macrophage RAW 264.7 cells; assay type: cell-based
Procedure: [Data shown as mean±SE and significance was determined by two-way ANOVA (for analysis shown in Panel B) and unpaired two-tailed t-test (for analysis shown in Panels D-G; *P<0.05, ***P<0.001, ****P<0.0001.]
A study was conducted to determine which aspects of the adipocyte lineage was affected by inhibition of Slc7a5. To this end, pre-adipocytes or differentiated adipocytes 3T3L1 were co-cultured in the presence of macrophage (RAW 264.7 cells). The experimental design is illustrated in FIG. 10, Panel A.
The study examined expression of PPARγ and mTOR, and Nile red stained lipid droplets, which are indicators of adipogenesis and are shown to increase in differentiated adipocytes compared to preadipocytes.

[8] = HFD-fed mice injected with JPH203
[9] = epididymal and inguinal white adipose tissues, vs control HFD-fed mice
[10] = epididymal adipose tissues, vs control HFD-fed mice
[11] = epididymal white adipose tissue, 15 days after treatment
[12] = epididymal white adipose tissue, 15 days after treatment, vs control HFD-fed mice
[13] = HFD-fed mice injected with JPH203 vs control HFD-fed mice
[14] = co-culture of 3T3L1 and RAW 264.7 cells
[15] = fully differentiated adipocytes as compared to the preadipocytes, in the presence of macrophages

Compound: Nc1cc(COc2c(Cl)cc(C[C@H](N)C(=O)O)cc2Cl)c2oc(-c3ccccc3)nc2c1 [JPH203, (S)-2-Amino-3-(4-((5-amino-2-phenylbenzo[d]oxazol-7-yl)methoxy)-3,5-dichlorophenyl)propanoic acid]
- mass of interscapular brown adipose tissue and epididymal and inguinal white adipose tissue, normal fed mice compared to HFD-fed mice injected with JPH203 (HFD-fed mice [1]; at 15 days): not significantly less
- body weight (HFD-fed mice [1]; HFD-fed mice, after 15 days, vs HFD-fed mice injected with vehicle (PBS)): significant weight reduction
- mass of epididymal white adipose tissue (HFD-fed mice [1]; HFD-fed mice, at 15 days, vs control HFD-fed mice): significantly less
- appetite suppression (food and water consumption) as contributor to weight loss (HFD-fed mice [1]; HFD-fed mice, over 15 days): not a major contributing factor
- Creatine levels (kidney function) (HFD-fed mice [2]; 15 days): in the normal ranges
- complete blood counts (CBC): effect on bone marrow and immune response (HFD-fed mice [2]; 15 days): no significant effect
- mice activity (running wheel experiment) (HFD-fed mice [2]; 15 days): does not decrease mice activity
- AST serum level (HFD-fed mice [2]; 15 days, normal is 13-35 IU/L): in the normal range
- ALT serum level (HFD-fed mice [2]; 15 days, normal is 37-88 IU/L): in the normal range
- Creatine levels compared with control HFD-fed mice (HFD-fed mice [2]; 15 days, vs control HFD-fed mice): significantly less
- liver, heart, or kidney weight (HFD-fed mice [2]; day 15): no effect
- mitochondrial biogenesis in interscapular brown adipose tissues (Mitotracker staining) [3, 8]: significantly increased
- adipocyte lipid content (Nile red staining) [3, 9]: lower lipid content
- adipocyte size (Nile red staining) [3, 9]: smaller sized adipocytes
- serum level of IGF1 (HFD-fed mice [4]): decreased
- serum level of IL1α (HFD-fed mice [4]): decreased
- serum level of IL1β (HFD-fed mice [4]): decreased
- serum level of IL6 (HFD-fed mice [4]): increased
- serum level of MCP1 (HFD-fed mice [4]): decreased
- serum level of TNFα (HFD-fed mice [4]): decreased
- serum level of VEGF (HFD-fed mice [4]): decreased
- serum level of leptin (HFD-fed mice [4]): decreased
- genes related to anti-adipogenic factor [5, 10]: upregulated
- genes related to energy dissipation/fatty acid β oxidation [5, 10]: upregulated
- genes related to fatty acid uptake [5, 10]: upregulated
- genes related to glucose uptake/glycolysis [5, 10]: downregulated
- genes related to glyceroneogenesis/fatty acid synthesis [5, 10]: downregulated
- genes related to lipogenesis [5, 10]: downregulated
- genes related to lipolysis [5, 10]: downregulated
- genes related to pentose phosphate pathway (NADPH production) [5, 10]: downregulated
- Hif2α expression (downstream target of mTOR signaling) [5, 11]: decreased
- Slc7a5 expression [5, 11]: did not change
- anti-inflammatory arginase 1 (Arg1) gene expression [5, 11]: increased
- proinflammatory nitric oxide synthase 2 (Nos2/Inos) gene expression [5, 11]: reduced
- mRNA levels for beiging and browning markers [5, 12]: increased
- mRNA levels for general adipogenic markers [5, 12]: decreased
- mRNA levels for white adipogenic markers [5, 12]: decreased
- reduction in blood glucose concentration after glucose administration (IPGTT) (HFD-fed mice [6]; [8]): significantly faster reduction
- correlation of weight loss with decreased baseline glucose (HFD-fed mice [6]; HFD-fed mice injected with JPH203 compared with control HFD-fed mice): positively correlated
- fasting glucose (HFD-fed mice [6]; [13]): lower
- fed glucose (HFD-fed mice [6]; [13]): lower
- glucose tolerance (HFD-fed mice [6]; [13]): improved
- adipocyte differentiation [7, 14]: decreased
- cell survival / cell death [7, 14]: does not affect cell survival
- lipid droplets (Nile red stained) [7, 14]: reduction
- PPARγ expression [7, 15]: reduced
- mTOR expression [7, 15]: reduced
